Publication PMC9469100, “Turning Nonselective Inhibitors of Type I Protein Arginine Methyltransferases into Potent and Selective Inhibitors of Protein Arginine Methyltransferase 4 through a Deconstruction–Reconstruction and Fragment-Growing Approach” (Journal of Medicinal Chemistry, 2022)
One block for each molecule: values may come before it.

Legend:
[1] = biological target: T1, SUV420H1 (Homo sapiens, UniProt Q4FZB7); experiment: HotSpot KMT activity assay, SUV420H1; format: biochemical; conditions: 10-dose mode, 3-fold dilution starting at 100 µM; read-out: ref. cmpd. IC50 (µM), SUV420H1
T1 construct: SUV420H1-tv2 (residues 2–393); C-terminus; N-terminal GST-tag; GST (N); purchased Reaction Biology Corporation
T1 sequence (Q4FZB7 2-393 isoform Q4FZB7-2): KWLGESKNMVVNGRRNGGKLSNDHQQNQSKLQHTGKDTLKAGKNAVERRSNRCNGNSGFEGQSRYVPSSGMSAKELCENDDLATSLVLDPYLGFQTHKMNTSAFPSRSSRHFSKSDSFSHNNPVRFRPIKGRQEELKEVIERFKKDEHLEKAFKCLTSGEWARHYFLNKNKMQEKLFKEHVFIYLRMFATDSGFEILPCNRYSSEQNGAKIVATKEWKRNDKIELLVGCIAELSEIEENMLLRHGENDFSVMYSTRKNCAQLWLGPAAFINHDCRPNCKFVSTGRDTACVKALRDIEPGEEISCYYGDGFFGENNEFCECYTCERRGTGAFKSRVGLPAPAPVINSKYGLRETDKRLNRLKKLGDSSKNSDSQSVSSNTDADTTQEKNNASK
Method: (§1) Then, ^3H-SAM (final concentration 1 μM) was delivered into the reaction mixture to initiate the reaction. After incubation for 60 min at 30 °C, the reaction mixture was delivered to filter-paper for detection (as assessed by scintillation). […] No inhibitor control (DMSO) was considered as 100% enzyme activity. Data were analyzed using Excel and GraphPad Prism 6.0 software (GraphPad Software Inc., San Diego, CA). Values obtained for each compound are mean ± SD determined for two separate experiments.

[2] = biological target: T2, SET7/9 (Homo sapiens, UniProt Q8WTS6); experiment: HotSpot KMT activity assay, SET7/9; format: biochemical; conditions: 10-dose mode, 3-fold dilution starting at 100 µM; read-out: ref. cmpd. IC50 (µM), SET7/9
T2 construct: SET7/9 (residues 2–366, C-terminus); with a N-terminal GST-tag and a C-terminal His-tag; GST (N); His (C); purchased Reaction Biology Corporation
T2 sequence (Q8WTS6 2-366): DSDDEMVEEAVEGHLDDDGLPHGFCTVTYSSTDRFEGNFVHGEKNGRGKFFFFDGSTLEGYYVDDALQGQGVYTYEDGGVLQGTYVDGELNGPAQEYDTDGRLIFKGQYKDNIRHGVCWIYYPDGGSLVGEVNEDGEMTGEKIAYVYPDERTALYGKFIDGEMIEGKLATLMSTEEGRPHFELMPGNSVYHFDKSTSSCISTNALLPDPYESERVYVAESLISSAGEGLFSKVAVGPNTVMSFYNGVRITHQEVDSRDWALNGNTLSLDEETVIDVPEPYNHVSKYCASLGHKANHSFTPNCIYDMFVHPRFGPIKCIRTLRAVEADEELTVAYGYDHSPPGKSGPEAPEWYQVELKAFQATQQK
Method: as §1

[3] = biological target: T3, MLL1 complex (Homo sapiens, UniProt Q03164); experiment: HotSpot KMT activity assay, MLL1; format: biochemical; conditions: 10-dose mode, 3-fold dilution starting at 100 µM; read-out: ref. cmpd. IC50 (µM), MLL1
T3 construct: including MLL1 residues 3745–3969, C-terminus; His (N); purchased Reaction Biology Corporation
Method: as §1

[4] = biological target: SMYD3 (Homo sapiens, UniProt Q9H7B4); experiment: HotSpot KMT activity assay, SMYD3; format: biochemical; conditions: 10-dose mode, 3-fold dilution starting at 100 µM; read-out: ref. cmpd. IC50 (µM), SMYD3
SMYD3, sequence (Q9H7B4 whole entry): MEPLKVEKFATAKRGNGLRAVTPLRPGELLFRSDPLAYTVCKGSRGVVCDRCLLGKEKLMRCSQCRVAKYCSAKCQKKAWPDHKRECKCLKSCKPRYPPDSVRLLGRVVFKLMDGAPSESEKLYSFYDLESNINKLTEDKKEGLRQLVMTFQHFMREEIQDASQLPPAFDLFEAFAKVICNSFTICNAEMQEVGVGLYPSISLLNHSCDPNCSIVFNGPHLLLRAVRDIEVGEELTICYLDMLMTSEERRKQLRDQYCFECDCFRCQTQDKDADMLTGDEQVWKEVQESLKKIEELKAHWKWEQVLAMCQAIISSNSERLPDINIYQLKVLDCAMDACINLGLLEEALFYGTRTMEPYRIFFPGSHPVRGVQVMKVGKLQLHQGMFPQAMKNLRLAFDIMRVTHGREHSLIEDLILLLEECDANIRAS
Method: as §1

[5] = biological target: T4, SUV39H2 (Homo sapiens, UniProt Q9H5I1); experiment: HotSpot KMT activity assay, SUV39H2; format: biochemical; conditions: 10-dose mode, 3-fold dilution starting at 100 µM; read-out: ref. cmpd. IC50 (µM), SUV39H2
T4 construct: SUV39H2 (residues 46–410, C-terminus); N-terminal fusion protein with a C-terminal His-tag; His (C); purchased Reaction Biology Corporation
T4 sequence (Q9H5I1 46-410): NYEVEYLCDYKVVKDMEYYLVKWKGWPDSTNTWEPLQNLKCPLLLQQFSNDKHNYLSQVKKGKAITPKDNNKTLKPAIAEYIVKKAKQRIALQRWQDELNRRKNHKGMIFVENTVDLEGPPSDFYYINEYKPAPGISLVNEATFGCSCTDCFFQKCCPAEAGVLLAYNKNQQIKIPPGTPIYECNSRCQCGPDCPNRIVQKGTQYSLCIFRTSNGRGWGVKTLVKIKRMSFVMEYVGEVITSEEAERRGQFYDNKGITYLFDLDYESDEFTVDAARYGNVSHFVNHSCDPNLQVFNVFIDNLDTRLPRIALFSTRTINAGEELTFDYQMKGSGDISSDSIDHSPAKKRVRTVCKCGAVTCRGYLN
Method: as §1

[6] = test system: PRMT4 (HEK293T cells); experiment: Western blot with pan-PRMT4 substrate antibody, HEK293T; conditions: TP-064 concentrations higher than 10 μM
[7] = test system: PRMT4 (MCF7 cells); experiment: Western blot with pan-PRMT4 substrate antibody, MCF7; conditions: 12h 10 and 50 μM, TP-064 10 μM; 4 and 8 days; PRMT4sub immunoblot
[8] = test system: HEK293T cells; experiment: Cell proliferation assay (CellTiter-Glo), HEK293T; format: cell-based, human; conditions: 10 μM TP064; 50 μM 12h; up to day 8
Method: (§2) HEK293T cells were seeded into 96-well plates at the density of 250 cells/well in 100 μL of medium. MCF7 cells were seeded into 96-well plates at the density of 1000 cells/well in 100 μL of medium. Cell proliferation was analyzed at day 0, day 2, day 4, day 6, and day 8, and the medium was changed at day 4. The proliferation analysis was based on viability as determined by CellTiter-Glo (#G7572, Promega) according to the manufacturer’s instructions. Triple independent repeats were conducted.

[9] = test system: MCF7 cells; experiment: Cell proliferation assay (CellTiter-Glo), MCF7; format: cell-based, human; conditions: 10 μM TP064; 50 μM 12h; up to day 8
Method: as §2

[10] = test system: PRMT5; parameters: method as in PMID 25893041; conditions: cited from earlier work
[11] = test system: PRMT7; parameters: method as in PMID 25893041; conditions: cited from earlier work
[12] = biological target: Mus musculus PRMT4 PRMT core (mmPRMT4_(130–487) or mmPRMT4_(130–497)) (Mus musculus) (UniProt Q9WVG6); experiment: crystal structure; cocrystallization of mmPRMT4 with compounds 12a-12c and 12f-12h, hanging drop vapor diffusion, 293 K, space group P2_(1)2_(1)2, four monomers in the asymmetric unit
[13] = biological target: Mus musculus PRMT6, residues 34–378 (Mus musculus) (UniProt Q6NZB1); experiment: crystal structure; cocrystallization of mmPRMT6 with compounds 12a, 12c and 12f, hanging drop vapor diffusion, 293 K, space group P2_(1), two molecules in the asymmetric unit

Molecule: Nc1ncnc2c1ncn2[C@@H]1O[C@H](CSCC[C@H](N)C(=O)O)[C@@H](O)[C@H]1O [SAH, S-5′-adenosyl-L-homocysteine, reference compound]
IC50 [1]: 46.5 µM | IC50 [2]: 139 µM | IC50 [3]: 0.464 µM | IC50 [4]: 18.7 µM | IC50 [5]: 32.7 µM

Molecule: CNCCN1CCC(c2cc(CN(C)C(=O)c3cccc(Oc4ccccc4)c3)ccn2)CC1 [TP-064, reference compound]
cell death [6]: led to cell death | arginine methylation levels in MCF7 cells [7]: profoundly affected | proliferation of HEK293T cells [8]: no effect was observed | proliferation of MCF7 cells [9]: markedly decreased

Molecule: CC(C)N(CCCNC(=O)Nc1ccc(C(C)(C)C)cc1)C[C@H]1O[C@@H](n2ccc3c(N)ncnc32)[C@H](O)[C@@H]1O [compound 3]
IC50 [10]: 0.52 µM | IC50 [11]: 7.5 µM

stoichiometry N [12]: 4
Molecule: Mus musculus PRMT4 PRMT core (mmPRMT4_(130–487) or mmPRMT4_(130–497)) (from UniProt Q9WVG6 130-487) (domain or fragment)

stoichiometry N [13]: 2
Molecule: Mus musculus PRMT6, residues 34–378 (from UniProt Q6NZB1 34-378) (domain or fragment)
